In patent publication US20240124556A1, “KERATIN BD-3, PREPARATION METHOD THEREFOR AND PHARMACEUTICAL COMPOSITION AND USE THEREOF” (INSTITUTE OF MATERIA MEDICA, CHINESE ACADEMY OF MEDICAL …, priority 2019, published 2024):
Counter-ions that a name gives are not always drawn. Marks after values point to notes of the source that are not given here.

Columns and labels:
[1] = system: lipopolysaccharide (LPS) induced fever model in SD rats; experiment: Lipopolysaccharide (LPS) induced fever in SD rats; format: in vivo
Procedure: • Animals: 230-260 grams of male SD rats; • Drugs: lipopolysaccharide (LPS, SIGMA L-2880), aspirin (SIGMA A2093), protein BD-3; Instruments: electronic balance (SARTORIUS BP121S type), electronic clinical thermometer (CITIZEN CT-513W type). • Experiment grouping: • Normal control group; • Model group: lipopolysaccharide fever model; • Positive control group: Aspirin 300 mg/kg group; • Protein BD-3, 10 mg/kg group, 50 mg/kg group. • Method: the method of intraperitoneal injection of Lipopolysaccharide to replicate rat fever model.
(§1) Preparation of experimental animals: After the experimental animals adapt to the experimental environment (temperature 22° C.±2° C., relative humidity 50%±2%) for 1 day. Pre-adaptation to measure rectal temperature at 8:00 and 15:00, rats were fasted and water was taken freely 12 h before experiment, and let the animal to empty its feces before measuring the rectal temperature. Apply petroleum jelly to the electronic thermometer probe before each temperature measurement. Insert the rat rectum 2 cm (can be marked at 2 cm to ensure that the depth of each insertion is consistent), and record the body temperature after the reading is stable.
Intraperitoneal injection of lipopolysaccharide to replicate rat fever model: The body temperature of the rats was measured before modeling. Qualified rats with a body temperature of 36.2-37.3° C. were selected and randomly divided into groups with 8 rats in each group. After oral administration of aspirin and different doses of protein BD-3, lipopolysaccharide (20 μg/kg, 2 ml/kg) was injected intraperitoneally immediately, and the normal control group was injected intraperitoneally with an equal volume of normal saline. The body temperatures of the rats were monitored after 2 hours for a total of 8 hours.
(§2) According to the body temperature measured at each time point on the day of the experiment, calculate the mean, standard deviation and standard error of the body temperature of each group of rats. The data of each group was compared with TTEST, and P<0.05 was considered as a significant difference.

[2] = system: yeast-induced fever model in SD rats; experiment: Yeast-induced fever model of SD rats; format: in vivo
Procedure: • Animals: 230-260 grams of male SD rats; • Medicines: yeast (OXOID LP0021), aspirin (SIGMA A2093), protein BD-3; • Instruments: electronic balance (SARTORIUS BP121S type), electronic clinical thermometer (CITIZEN CT-513W type). • Experiment grouping: • Normal control group; • Model group: yeast fever model; • Positive control group: Aspirin 300 mg/kg group; • Protein BD-3, 10 mg/kg group, 50 mg/kg group. • Method:
as §1
Subcutaneous injection of dry yeast to replicate rat fever model: The body temperature of the rats was measured before modeling. Qualified rats with a body temperature of 36.2-37.3° C. were selected and randomly divided into groups with 8 rats in each group. After oral administration of aspirin and different doses of protein BD-3, 20% yeast suspension (10 ml/kg) was injected subcutaneously immediately, and the normal control group was injected intraperitoneally with an equal volume of normal saline. The body temperatures of the rats were monitored after 2 hours for a total of 8 hours.
as §2

[3] = system: acetic acid writhing in ICR mice; experiment: Acetic acid writhing in ICR mice; format: in vivo
Procedure: • Animals: male ICR mice; • Drugs and reagents: aspirin, physiological saline, glacial acetic acid, protein BD-3. • Experiment grouping: • Model group; • Aspirin 300 mg/kg group; • Protein BD-3, 50 mg/kg group, 200 mg/kg group.
One day after the experimental animals adapt to the environment, Aspirin 300 mg/kg, protein BD-3 50 mg/kg, 200 mg/kg were given orally one hour in advance, and the administration volume was 10 ml/kg; Then, 0.6% acetic acid solution was injected intraperitoneally, and the incubation period (seconds) and frequency of writhing in the animal was observed within 15 minutes.
Calculate the mean and standard error of the data in each group. Compared with the model group by TTEST, P<0.05 was considered as statistically different.

[4] = system: PLO-induced epilepsy in mice; experiment: Pilocarpine (PLO) induced convulsive epilepsy in mice; format: in vivo, ICR mice; conditions: Diazepam 2 mg/kg
Procedure: • Animals: male ICR mice; • Drugs: Pilocarpine HCl (PLO, pilocarpine, pilocarpine hydrochloride), Diazepam (diazepam tablets), protein BD-3. • Experiment grouping: • Model group: • Diazepam 2 mg/kg group; • Protein BD-3, 50 mg/kg group, 200 mg/kg group.
The drug was administered once in the afternoon the day before modeling, PLO-225 mg/kg (modeling agent) was injected intraperitoneally 1 hour after the test drug was administered intragastrically on the day of modeling. And positive drug can be administered once 20 minutes before modeling. Observe for 30 minutes after PLO injection.
Observation indicators: (1)Seizure situation: the time of seizures from Grade II to Grade IV; (2)the time to death.
(§3) Seizure grade: Refer to Racine grading standard: Grade 0: No response; Grade I: manifested as twitching of facial muscles or the corners of the mouth; Grade II: can nod; Grade III: twitching of one limb; Grade IV: rigidity or body twitching; Grade V: generalized epilepsy (generalized tonic seizures).
Count the number of Grade IV seizures and deaths in each group of mice in the experiment; Grade II, III and IV incubation period. […] Chi-square test was used for statistics of the number of cases. The mean value and standard error of the incubation period were calculated, and TTEST was used to compare the model group with other groups. P<0.05 was considered as a significant difference.

[5] = system: PTZ-induced epilepsy in mice; experiment: Pentylenetetrazole (PTZ)-induced epilepsy in mice; format: in vivo, ICR mice; conditions: Retigabine 60 mg/kg
Procedure: • Animals: male ICR mice; • Medicines: Pentylenetetrazol (PTZ), Retigabine, Protein BD-3. • Experiment grouping: • Model group; • Retigabine 60 mg/kg group; • Protein BD-3, 50 mg/kg group, 200 mg/kg group;
The drug was administered once in the afternoon the day before modeling, On the day of modeling, PTZ-65 mg/kg (modeling agent) was injected intraperitoneal 1 hour after the test drug was administered intragastrically, and the positive drug can be administered once half an hour before modeling. Continue to observe for 15 minutes after injection of PTZ.
Observation index: (1)Seizure situation: the time of seizures from Grade III to Grade VI; (2)Death situation
as §3
Count the cases of seizures and deaths in each group of mice in the experiment; Grade III and IV incubation period. The incubation period of mice that have not attacked to Grade IV is recorded as the maximum of 900 seconds. Chi-square test was used for statistics of the number of cases. Calculate the mean and standard error of the incubation period. Use TTEST to compare the model group with other groups, and P<0.05 is considered as a significant difference.

[6] = system: cough induced by ammonia water in mice; experiment: Antitussive test, cough induced by ammonia water in mice; format: in vivo, ICR mice
Procedure: • Animals: male ICR mice; • Drugs and reagents: dextromethorphan hydrobromide, ammonia water, 0.2% CMC-Na, protein BD-3; • Apparatus: Compressed nebulizer (403T type), balance (XS105DU type). • Experiment grouping: • Solvent control group; • Dextromethorphan 15 mg/kg group; • Protein BD-3, 20 mg/kg group, 50 mg/kg group.
Dextromethorphan and different doses of protein BD-3 (administration volume 10 ml/kg) were given orally in groups, and the solvent control group was given the same volume of distilled water. One hour later, mice were put into a sealed box and atomized 10% ammonia water for 10 seconds, and then observed and recorded the incubation period of cough in mice and the number of coughs in 2 minutes.
Record the time point of oral administration, the time point of atomization experiment, the incubation period of mice cough and the number of coughs within 2 minutes, respectively. The incubation period of cough refers to the number of seconds from the start of the atomization of ammonia to the occurrence of cough. The performance of coughing in mice is based on contraction of their abdominal muscles (breast contraction) and opening their mouths at the same time. Calculate the mean and standard error of each group of data, and use TTEST to compare the model group with other groups, and P<0.05 is considered as a significant difference.

[7] = aspirin 300 mg/kg oral, LPS 20 μg/kg i.p., model group 37.8 ± 0.2
[8] = aspirin 300 mg/kg oral, 20% yeast s.c., model group 37.7 ± 0.1

## CC(=O)Oc1ccccc1C(=O)O [aspirin, reference compound]
[1]; aspirin 300 mg/kg oral, LPS 20 μg/kg i.p., model group 37.6 ± 0.1
  Body temperature 2 hours after modeling: 36.8 ± 0.1 °C
[1]; aspirin 300 mg/kg oral, LPS 20 μg/kg i.p., model group 37.8 ± 0.1
  Body temperature 4 hours after modeling: 36.9 ± 0.2 °C
[1]; [7]
  Body temperature 6 hours after modeling: 36.8 ± 0.2 °C
  Body temperature 8 hours after modeling: 36.9 ± 0.1 °C
[1]; aspirin 300 mg/kg, at 2, 4, 6 and 8 hours after modeling, P<0.05 vs model group
  Effect on body temperature of model rats (in words): can effectively inhibit the increase in body temperature of model rats
[2]; aspirin 300 mg/kg oral, 20% yeast s.c., model group 37.5 ± 0.1
  Body temperature 2 hours after modeling: 37.0 ± 0.1 °C
[2]; aspirin 300 mg/kg oral, 20% yeast s.c., model group 37.6 ± 0.1
  Body temperature 8 hours after modeling: 37.0 ± 0.1 °C
[2]; [8]
  Body temperature 4 hours after modeling: 37.0 ± 0.1 °C
  Body temperature 6 hours after modeling: 37.0 ± 0.1 °C
[2]; aspirin 300 mg/kg, at 4 hours, 6 hours, and 8 hours after modeling, P<0.05 vs model group
  Effect on body temperature of model rats (in words): can effectively inhibit the increase in body temperature of model rats
[3]; Aspirin 300 mg/kg, P<0.05
  Writhing incubation period and times of writhing vs model group (in words): can significantly delay the incubation period of writhing and reduce the times of writhing
[3]; aspirin 300 mg/kg oral, 0.6% acetic acid i.p., model group 204.2 ± 19.6
  Writhing incubation period: 290.3 ± 37.0 s
[3]; aspirin 300 mg/kg oral, within 15 minutes, model group 33.3 ± 2.5
  Frequency of writhing: 15.2 ± 2.9 times

## CN1C(=O)CN=C(c2ccccc2)c2cc(Cl)ccc21 [Diazepam, reference compound]
[4]; PLO 225 mg/kg i.p., model group 0
  mortality rate: 0
[4]; PLO 225 mg/kg i.p., model group 80%
  Grade IV seizure rate: 0** %
[4]; mean ± SEM, maximum recorded 1800 seconds, model group 894 ± 164
  Grade IV seizure incubation period: 1800 ± 0 s
[4]; mean ± SEM, model group 86 ± 5
  Grade II seizure incubation period: 109 ± 8 s
[4]; mean ± SEM, model group 142 ± 6
  Grade III seizure incubation period: 182 ± 14 s
[4]; of 10 mice, PLO 225 mg/kg i.p., 30 min observation, model group 8
  Cases of Grade IV: 0**
[4]; of 10 mice, PLO 225 mg/kg i.p., model group 0
  Cases of deaths: 0

## CCOC(=O)Nc1ccc(NCc2ccc(F)cc2)cc1N [Retigabine, reference compound]
[5]; PTZ 65 mg/kg i.p., model group 10%
  mortality rate: 0%
[5]; PTZ 65 mg/kg i.p., model group 90%
  Grade IV seizure rate: 20%**
[5]; mean ± SEM, maximum recorded 900 seconds, model group 185 ± 84
  Grade IV seizure incubation period: 745 ± 103 s
[5]; mean ± SEM, model group 63 ± 6
  Grade III seizure incubation period: 83 ± 7 s
[5]; of 10 mice, PTZ 65 mg/kg i.p., 15 min observation, model group 9
  Cases of Grade IV: 2**
[5]; of 10 mice, PTZ 65 mg/kg i.p., model group 1
  Cases of deaths: 0

## COc1ccc2c(c1)[C@]13CCCC[C@@H]1[C@H](C2)N(C)CC3 [Dextromethorphan, dextromethorphan hydrobromide, reference compound]
[6]; Dextromethorphan 15 mg/kg oral, X ± SEM, solvent control 26.9 ± 2.3
  Incubation period (cough): 38.4 ± 4.5 s
[6]; Dextromethorphan 15 mg/kg oral, within 2 minutes, X ± SEM, solvent control 67.1 ± 5.7
  Number of coughs: 34.0 ± 2.9
[6]; dextromethorphan 15 mg/kg, P<0.05
  Cough incubation period and number of coughs vs solvent control (in words): significant improvement in the incubation period and the number of coughs
